Laboratory results reported in US20040014217A1, “Methods of transfection” (priority 2000, published 2004).

How the values were obtained:
[1] = system: Human airway epithelial (HAE) cells; experiment: GFP transfection of HAE cells with or without EGTA (FACS), Example 13; format: cell-based; details: EGTA 1 mM
Protocol: Human airway epithelial (HAE) cells, type HEAO— were seeded at 80% into 24 well plates. The cells were grown in Modified Eagle Medium (MEM) obtained from Life Technologies (Paisley, Scotland) supplemented with 10% foetal calf serum and 2 mM L-glutamine to form cultures of confluent cells. Subconfluent cultures of the same cells were also prepared.
The reporter genes used were a green fluorescent protein (GFP) reporter gene and a luciferase reporter gene. The GFP reporter gene was used in the form of plasmid pEGFP-N1, obtained from Clontech. The luciferase reporter gene was used in the form of construct pCILuc consisting of the firefly luciferase gene (Luc) inserted into the expresssion vector pCI (Promega, Southampton, England)
For these in vitro experiments peptide 12 [K]16XSXGACRRETAWACG (X: ε amino hexanoic acid), SEQ.ID.NO.: 26, was used. […]
Transfection levels using the luciferase reporter gene was measured as described in the Material and methods section. In the case of the GFP reporter gene, after harvesting the cells were analysed by fluorescence activated cell sorting (FACS) for quantification of the number of fluorescent cells.

[2] = system: 1HAEo-cells; experiment: BrdU incorporation by flow cytometry, 1HAEo- cells; format: cell-based, human; details: EGTA 2 mM, aphidicolin 10 μg/ml where present
Protocol: A BrdU Labelling and Detection Kit (Roche, Basel, Switzerland) was used, which contains the BrdU labelling reagent and the monoclonal mouse anti-BrdU. […] Cells were washed with PBS and incubated with a second layer antibody, Texas Red labelled horse anti-mouse IgG (Vector Laboratories, Peterborough, UK), for 30 minutes at 37° C. and then analysed by flow cytometry at the wavelength of 575±20 nm as detailed above. In some experiments, aphidicolin, a cell-proliferation inhibitor blocking the cell cycle in S-phase, was added to the cells to observe the effects on transfection efficiency.

[3] = system: confluent 1HAEo-cells; experiment: Immunofluorescence for tight junction protein occludin; format: cell-based, human; details: 2 mM EGTA in Opti-MEM, 30 minutes
Protocol: To observe the double fluorescence labelling, the β-galactosidase-transfected and BrdU-labelled (as detailed above in Assay of cell proliferation) cells were fixed with 70% ethanol in 50 mM glycine buffer, pH 2.0, for 30 minutes at −20° C. The cells were then incubated with a mixture of two primary antibodies, the rabbit anti-p-galactosidase at 1:200 (Chemicon International Inc, Harrow, UK). and the mouse anti-BrdU at 1:10 (BrdU Labelling and Detection Kit; Roche, Basel, Switzerland), followed by incubation with a mixture of FITC-conjugated goat anti-rabbit IgG and texas red labelled horse anti-mouse IgG (Vector Laboratories, Peterborough, UK). Transwell inserts were then excised from the plastic holder and mounted on glass slides with aqueous mountant Vectashield (Vector Laboratories, Peterborough, UK). To observe the effects of EGTA on tight junction, the EGTA-treated cells were immunostained with a rabbit polyclonal antibody against tight junction protein occludin (Zymed, San Francisco, USA) diluted 1:10 with PBS. […] Images were observed and captured with an inverted fluorescence microscope (Olympus IX70, Olympus Optical Company, London, UK) for transwell and a confocal microscope (Leica TCS SP, Exton, Pa., USA) for excised inserts.

[4] = system: confluent epithelial cells; experiment: Transepithelial resistance after EGTA exposure; details: 2 mM EGTA; data not shown

O=C(O)CN(CCOCCOCCN(CC(=O)O)CC(=O)O)CC(=O)O [EGTA, ethylene glycol-bis(β-aminoethyl ether)-N,N,N′,N′-tetraacetic acid]
effect on efficiency of transfection of sub-confluent cells [1]: no effect | increase of transfection levels of confluent cells [1]: four-fold | BrdU-positive cells, sub-confluent 1HAEo- cells [2]: about 24% | effect on tight junctions (occludin immunofluorescence) [3]: disrupted the tight junctions | recovery of transepithelial resistance after removal [4]: 16 to 18 h | time after exposure at which transepithelial resistance dropped [4]: about 10 minutes
